The values below come from patent US9937161B2, “Combinatorial compositions and methods for treatment of melanoma” (THE GENERAL HOSPITAL CORPORATION, priority 2013, dated 2018).

In one test the test system is MEK1/2. The conditions noted are these: cited from earlier work.
The next test relates to melanoma cells (M14). The experiment in a line: Cell number, mitochondrial inhibitors combined with PLX4720. As to the method:
(§1) Melanoma cell were treated for 24 h with PLX4720 then mitochondrial uncoupler for 48 h, prior to estimation of cell number.
as §1
Cell number was calculated using the CYQUANT® assay (INVITROGEN™) or crystal violet staining. Lactate measurements were done using the Lactate Assay (BioVision or SIGMA®) per manufacturer's protocols. Indicated cell lines were plated in complete media overnight. Media was changed to serum free-media to avoid interference with the assay for 16 h with either PLX4720 (3 μM) or PLX4032 (1 μM) or vehicle control prior to harvesting cells and measurement of lactate. Results were normalized to cell number. All assays were performed in logarithmically growing cells.

For a further test, the system named is MEK. To be noted: cited from earlier work.
Another test relates to KIT mutated melanoma. To be noted: case reports, retrospective and phase II studies; cited from earlier work.
The next test concerns apoptosis. In words: Apoptosis, tigecycline with PLX4720. The class given is cell-based. The conditions noted are these: combination with PLX4720.

In the case of `Cc1cc(C(=O)NOCCO)c(Nc2ccc(I)cc2F)n(C)c1=O` [AZD8330], the IC50 (commonly the concentration at which inhibition is half-maximal) in the test on MEK1/2 was 7 nM.
For the compound `N#CC(C#N)=NNc1cccc(Cl)c1` [CCCP], in the test on melanoma cells (M14) (M14 cells, 72 hrs), the “sensitivity of cells to the agent alone” value is recorded as “relatively insensitive”.
For `COc1cccc(-c2cc(=O)c3ccccc3o2)c1N` [PD98059], in the test with MEK, the IC50 is […].
Regarding `Cn1c(=O)c(F)c(Nc2ccc(I)cc2F)c2c(=O)n(C[C@@H](O)CO)cnc21` [TAK-733], in the test on MEK, the IC50 was 3.2 nM.
Turning to `CC[C@@H]1/C=C/C=C/C[C@H](C)[C@H](O)[C@](C)(O)C(=O)[C@H](C)[C@@H](O)[C@H](C)C(=O)[C@H](C)[C@@H](O)[C@H](C)/C=C/C(=O)O[C@H]2[C@@H](C)[C@@H](CC1)O[C@@]1(CC[C@@H](C)[C@@H](C[C@H](C)O)O1)[C@@H]2C` [oligomycin A], the “Combination Index with PLX4720 (additively enhanced the efficacy of PLX4720)” value in the test on melanoma cells (M14) (in vitro, cell number after 72 hrs) was determined as 0.9.
Regarding `CNC(=O)c1cc(Oc2ccc(NC(=O)Nc3ccc(Cl)c(C(F)(F)F)c3)cc2)ccn1` [sorafenib], the clinical responses result in the test with KIT mutated melanoma is reported as “clinical responses”.
For the compound `CN(C)c1cc(NC(=O)CNC(C)(C)C)c(O)c2c1C[C@H]1C[C@H]3[C@H](N(C)C)C(O)=C(C(N)=O)C(=O)[C@@]3(O)C(O)=C1C2=O` [tigecycline, N-[(5aR,6aS,7S,9Z,10aS)-9-[amino(hydroxy)methylidene]-4,7-bis(dimethylamino)-1,10a,12-trihydroxy-8,10,11-trioxo-5,5a,6,6a,7,8,9,10,10a,11-decahydrotetracen-2-yl]-2-(tert-butylamino)acetamide], the “apoptosis induced by BRAF inhibitor PLX4720” value with apoptosis is given as “strongly potentiates apoptosis”.
